Experimental data taken from patent US9783503B2, “Crystalline forms of an estrogen receptor modulator” (Genentech, Inc., priority 2014, dated 2017).
Entries after “also recorded” stand apart in the source; their conditions may differ. Where a name gives a salt, the structure may show the parent alone.

Tests used:
[1] = Thermodynamic aqueous solubility; settings: for solubility at 24 h: water, 25 °C, thermodynamic from solid
Procedure: The suspension was equilibrated at 25° C. for 24 hours then the pH was measured. The suspension was then filtered through a glass fibre C filter. […] Different volumes of the standard, diluted and undiluted sample solutions were injected.
Analysis was performed on an Agilent HP1100 series system equipped with a diode array detector and using ChemStation software vB.02.01-SR1.

[2] = Static storage stability at elevated humidity, checked by XRPD; assay type: physicochemical
Text: X-Ray powder diffraction patterns were collected on a Bruker AXS C2 GADDS or a Bruker AXS D8 Advance diffractometer.

[3] = Gravimetric Vapor Sorption (GVS); assay type: physicochemical
Procedure: Sorption isotherms were obtained using a SMS DVS Intrinsic moisture sorption analyzer, controlled by DVS Intrinsic Control software v1.0.0.30. The sample temperature was maintained at 25° C. by the instrument controls. The humidity was controlled by mixing streams of dry and wet nitrogen, with a total flow rate of 200 mL/min. The relative humidity was measured by a calibrated Rotronic probe (dynamic range of 1.0-100% RH), located near the sample. The weight change, (mass relaxation) of the sample as a function of % RH was constantly monitored by the microbalance (accuracy+0.005 mg).
Typically 5-20 mg of sample was placed in a tared mesh stainless steel basket under ambient conditions. The sample was loaded and unloaded at 40% RH and 25° C. (typical room conditions). A moisture sorption isotherm was performed as outlined below (2 scans giving 1 complete cycle). The standard isotherm was performed at 25° C. at 10% RH intervals over a 0-90% RH range. Data analysis was undertaken in Microsoft Excel using DVS Analysis Suite v6.0.0.7.
The sample was recovered after completion of the isotherm and re-analyzed by XRPD.

[4] = system: xenograft models of ER+ breast cancer; experiment: Tamoxifen-sensitive and tamoxifen-resistant xenograft models of ER+ breast cancer; assay type: in vivo
breast tumor cell = experiment: Breast tumor cell proliferation; assay type: cell-based
Oral bioavailability = settings: in vivo

With `CC/C(=C(/c1ccc(/C=C/C(=O)O)cc1)c1ccc2[nH]ncc2c1)c1ccc(F)cc1Cl` [N-Methylglucamine, (2S,3R,4R,5R)-2,3,4,5,6-pentahydroxy-N-methylhexan-1-aminium (E)-3-(4-((E)-2-(2-chloro-4-fluorophenyl)-1-(1H-indazol-5-yl)but-1-enyl)phenyl)acrylate] the solubility at 24 h ([1]; Solubility, aqueous, crystalline salt prepared from MeCN (300 Vols)) was 10.6 mg/mL.

With `CC/C(=C(/c1ccc(/C=C/C(=O)O)cc1)c1ccc2[nH]ncc2c1)c1ccc(F)cc1Cl` [Form 1, (E)-3-(4-((E)-2-(2-chloro-4-fluorophenyl)-1-(1H-indazol-5-yl)but-1-en-1-yl)phenyl)acrylic acid, N-methyl glucamine salt] the “change of XRPD pattern after storage” value ([2]; 25° C. and 96% RH for 7 days) was “no visible change; also recorded: No difference in the XRPD patterns”, the “change of XRPD pattern after storage” value ([2]; 40° C. and 75% RH for 7 days) was “no visible change; also recorded: no difference in the XRPD patterns” and the “change by XRPD upon extended storage” value ([2]; extended storage in high humidity conditions at 40° C.) was “no visible change”. For the same compound, the “pH of saturated aqueous solution” value ([1]; saturated aqueous solution, 25° C., 24 hours) was “about 5.45”, the solubility at 24 h ([1]; pH 5.45, water, aqueous solubility, saturated aqueous solution, equilibrated at 25° C. for 24 hours) was 15.8 mg/mL and the “hysteresis of sorption isotherm” value ([3]; 0-90% RH, 25° C.) was “no hysteresis”. The “change of XRPD pattern after GVS analysis” value ([3]; after completion of the isotherm) was “No change in the XRPD pattern” and the mass uptake ([3]; between 0-90% RH, 25° C.) was “ca. 4.75%”.

With `C[C@]12CC[C@@H]3c4ccc(O)cc4C[C@@H](CCCCCCCCC[S+]([O-])CCCC(F)(F)C(F)(F)F)[C@H]3[C@@H]1CC[C@@H]2O` (stereo partly shown) [fulvestrant, reference compound] the “efficacy compared with the free acid” value ([4]; in some of these models) was “less efficacious”.

In the case of `CC/C(=C(/c1ccc(/C=C/C(=O)O)cc1)c1ccc2[nH]ncc2c1)c1ccc(F)cc1Cl` [Pattern 2, (E)-3-(4-((E)-2-(2-chloro-4-fluorophenyl)-1-(1H-indazol-5-yl)but-1-en-1-yl)phenyl)acrylic acid, N-methyl glucamine salt], the “change of XRPD pattern after storage” value ([2]; 40° C. and 75% RH for 7 days) is reported as “converted to Form 1”.

With `CC/C(=C(/c1ccc(/C=C/C(=O)O)cc1)c1ccc2[nH]ncc2c1)c1ccc(F)cc1Cl` [(E)-3-(4-((E)-2-(2-Chloro-4-fluorophenyl)-1-(1H-indazol-5-yl)but-1-en-1-yl)phenyl)acrylic acid] the “breast tumor cell proliferation” value (breast tumor cell) was “inhibition of breast tumor cell proliferation”, the anti-tumor activity ([4]; both tamoxifen-sensitive and tamoxifen-resistant xenograft models) was “dose dependent anti-tumor activity” and the ER-α tumor levels ([4]; tamoxifen-resistant xenograft models) was “reduction of ER-α tumor levels”. The Efficacious doses ([4]; xenograft models of ER+ breast cancer) was 1 to 100 mg/kg/day and the oral bioavailability (Oral bioavailability) was “good oral bioavailability”.
